Key:
Assay in all cases: relative viability (nuclei count vs DMSO), 5 days (fraction); higher = more cells survive
[1] = test system: NCI-H650
Outline: (§1)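 Relative viability divides the nuclei count in treated wells by that in vehicle wells. Lung cancer cell lines were seeded in 1536-well plates, dosed by pin tool the next day, and fixed and stained after 5 days in one step with final 0.05% Triton X-100, 1% formaldehyde and 1 ug/ml Hoechst. Dosing was a single drug or a fixed anchor-drug dose plus five library-drug doses (not always all listed) in √10 steps, and values are medians of duplicate plates imaged at 4×.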

[2] = test system: NCI-H522
Outline: as §1

[3] = test system: NCI-H727
Outline: as §1

[4] = test system: NCI-H596
Outline: as §1

[5] = test system: NCI-H1395
Outline: as §1

[6] = test system: EMC-BAC-2
Outline: as §1

[7] = test system: NCI-H23
Outline: as §1

[8] = test system: NCI-H2347
Outline: as §1

[9] = test system: NCI-H2087
Outline: as §1

[10] = test system: BEN
Outline: as §1

[11] = test system: NCI-H1993
Outline: as §1

[12] = test system: NCI-H647
Outline: as §1

[13] = test system: HARA
Outline: as §1

[14] = test system: NCI-H838
Outline: as §1

[15] = test system: 201T
Outline: as §1

[16] = test system: NCI-H441
Outline: as §1

[17] = test system: NCI-H1666
Outline: as §1

[18] = test system: NCI-H2126
Outline: as §1

[19] = test system: LOU-NH91
Outline: as §1

[20] = test system: HCC-44
Outline: as §1

[21] = test system: NCI-H3122
Outline: as §1

[22] = test system: LCLC-103H
Outline: as §1

## Clc1ccc(Nc2nnc(Cc3ccncc3)c3ccccc23)cc1 [Vatalanib] + NC(=O)Nc1cc(-c2cccc(F)c2)sc1C(=O)N[C@H]1CCCNC1 [AZD7762] (partner 0.2 µM)
[1]; first compound 0.04 µM
  relative viability: 1.03
[1]; first compound 0.1265 µM
  relative viability: 0.916
[1]; first compound 0.4 µM
  relative viability: 0.937
[1]; first compound 1.265 µM
  relative viability: 0.883
[1]; first compound 4 µM
  relative viability: 0.907
[2]; first compound 0.04 µM
  relative viability: 0.848
[2]; first compound 0.1265 µM
  relative viability: 0.794
[2]; first compound 0.4 µM
  relative viability: 0.777
[2]; first compound 1.265 µM
  relative viability: 0.74
[2]; first compound 4 µM
  relative viability: 0.808
[3]; first compound 0.1265 µM
  relative viability: 0.49
[3]; first compound 0.4 µM
  relative viability: 0.774
[3]; first compound 1.265 µM
  relative viability: 0.654
[3]; first compound 4 µM
  relative viability: 0.538
[4]; first compound 0.04 µM
  relative viability: 1.11
[4]; first compound 0.1265 µM
  relative viability: 1.25
[4]; first compound 0.4 µM
  relative viability: 1.18
[4]; first compound 1.265 µM
  relative viability: 1.1
[4]; first compound 4 µM
  relative viability: 0.907
[5]; first compound 0.04 µM
  relative viability: 0.381
[5]; first compound 0.1265 µM
  relative viability: 0.381
[5]; first compound 0.4 µM
  relative viability: 0.389
[5]; first compound 4 µM
  relative viability: 0.394
[6]; first compound 0.04 µM
  relative viability: 1.05
[6]; first compound 0.1265 µM
  relative viability: 0.991
[6]; first compound 0.4 µM
  relative viability: 1.12
[6]; first compound 4 µM
  relative viability: 1.15
[7]; first compound 0.04 µM
  relative viability: 0.269
[7]; first compound 0.1265 µM
  relative viability: 0.229
[7]; first compound 0.4 µM
  relative viability: 0.228
[7]; first compound 1.265 µM
  relative viability: 0.259
[7]; first compound 4 µM
  relative viability: 0.266
[8]; first compound 0.04 µM
  relative viability: 0.776
[8]; first compound 0.1265 µM
  relative viability: 0.932
[8]; first compound 0.4 µM
  relative viability: 0.901
[8]; first compound 1.265 µM
  relative viability: 0.521
[8]; first compound 4 µM
  relative viability: 0.769
[9]; first compound 0.04 µM
  relative viability: 1.28
[9]; first compound 0.1265 µM
  relative viability: 1.25
[9]; first compound 0.4 µM
  relative viability: 1.4
[9]; first compound 1.265 µM
  relative viability: 1.19
[9]; first compound 4 µM
  relative viability: 1.15
[10]; first compound 0.04 µM
  relative viability: 0.676
[10]; first compound 0.1265 µM
  relative viability: 0.732
[10]; first compound 0.4 µM
  relative viability: 0.596
[10]; first compound 1.265 µM
  relative viability: 0.602
[10]; first compound 4 µM
  relative viability: 0.685
[11]; first compound 0.04 µM
  relative viability: 0.4
[11]; first compound 0.1265 µM
  relative viability: 0.934
[11]; first compound 0.4 µM
  relative viability: 0.728
[11]; first compound 1.265 µM
  relative viability: 0.713
[11]; first compound 4 µM
  relative viability: 0.737
[12]; first compound 0.04 µM
  relative viability: 0.489
[12]; first compound 0.1265 µM
  relative viability: 0.45
[12]; first compound 0.4 µM
  relative viability: 0.395
[12]; first compound 1.265 µM
  relative viability: 0.391
[12]; first compound 4 µM
  relative viability: 0.46
[13]; first compound 0.04 µM
  relative viability: 0.41
[13]; first compound 0.1265 µM
  relative viability: 0.473
[13]; first compound 0.4 µM
  relative viability: 0.173
[13]; first compound 1.265 µM
  relative viability: 0.246
[13]; first compound 4 µM
  relative viability: 0.34
[14]; first compound 0.04 µM
  relative viability: 1.07
[14]; first compound 0.1265 µM
  relative viability: 0.882
[14]; first compound 0.4 µM
  relative viability: 1
[14]; first compound 1.265 µM
  relative viability: 0.867
[14]; first compound 4 µM
  relative viability: 0.87
[15]; first compound 0.04 µM
  relative viability: 0.611
[15]; first compound 0.1265 µM
  relative viability: 0.57
[15]; first compound 0.4 µM
  relative viability: 0.621
[15]; first compound 1.265 µM
  relative viability: 0.648
[15]; first compound 4 µM
  relative viability: 0.57
[16]; first compound 0.04 µM
  relative viability: 1.05
[16]; first compound 0.1265 µM
  relative viability: 1.18
[16]; first compound 0.4 µM
  relative viability: 1.19
[16]; first compound 1.265 µM
  relative viability: 1.02
[16]; first compound 4 µM
  relative viability: 0.892
[17]; first compound 0.04 µM
  relative viability: 0.733
[17]; first compound 0.1265 µM
  relative viability: 0.874
[17]; first compound 0.4 µM
  relative viability: 0.855
[17]; first compound 1.265 µM
  relative viability: 0.694
[17]; first compound 4 µM
  relative viability: 0.762
[18]; first compound 0.04 µM
  relative viability: 0.994
[18]; first compound 0.1265 µM
  relative viability: 0.99
[18]; first compound 0.4 µM
  relative viability: 1.02
[18]; first compound 1.265 µM
  relative viability: 0.995
[18]; first compound 4 µM
  relative viability: 1.07
[19]; first compound 0.04 µM
  relative viability: 0.786
[19]; first compound 0.1265 µM
  relative viability: 0.691
[19]; first compound 0.4 µM
  relative viability: 0.756
[19]; first compound 1.265 µM
  relative viability: 0.708
[19]; first compound 4 µM
  relative viability: 0.686
[20]; first compound 0.04 µM
  relative viability: 1.01
[20]; first compound 0.1265 µM
  relative viability: 1.03
[20]; first compound 0.4 µM
  relative viability: 0.959
[20]; first compound 1.265 µM
  relative viability: 0.983
[20]; first compound 4 µM
  relative viability: 1
[21]; first compound 0.04 µM
  relative viability: 1.07
[21]; first compound 0.1265 µM
  relative viability: 0.969
[21]; first compound 0.4 µM
  relative viability: 1.02
[21]; first compound 1.265 µM
  relative viability: 0.966
[21]; first compound 4 µM
  relative viability: 0.995
[22]; first compound 0.04 µM
  relative viability: 0.797
[22]; first compound 0.1265 µM
  relative viability: 0.714
[22]; first compound 0.4 µM
  relative viability: 0.803
[22]; first compound 1.265 µM
  relative viability: 0.806
[22]; first compound 4 µM
  relative viability: 0.725

Source: the supplement of paper PMC10307832
